{"source": "paper PMC3702004", "about": "“Comparison of Intake and Systemic Relative Effect Potencies of Dioxin-like Compounds in Female Mice after a Single Oral Dose” (Environmental Health Perspectives, 2013)", "key": {"[1]": {"test": "Body and organ weight, hepatic lipid content", "assay_type": "in vivo, female C57BL/6 mice", "conditions": "day 3; for % lipid / g liver: pooled liver samples", "description": "(§1) Animals. Eight-week-old female C57BL/6 mice (Harlan laboratories, Venray, the Netherlands) were randomly assigned to treatment groups (six animals per group) and allowed to acclimate for 1.5 weeks. The animals were housed in groups in standard cages and conditions (23 ± 2°C, 50–60% relative humidity, 12-hr dark/light cycle) with free access to food and water. Mice received a single dose of test compound by oral gavage at a dosing volume of 10 mL/kg body weight (BW). Mice treated with corn oil vehicle (10 mL/kg BW) served as controls. For each congener, five different doses were administered, ranging from 0.5–100 μg/kg BW (TCDD) to 5,000–500,000 µg/kg BW (PCB-153). Detailed information on doses is provided in Supplemental Material, Table S1 (http://dx.doi.org/10.1289/ehp.1206336). On day 3 after dosing, animals were euthanized by CO2/O2 asphyxiation, and blood was immediately collected from the abdominal aorta. The liver, thymus, spleen, and adipose tissue were removed, weighed (liver, thymus, and spleen), snap frozen, and stored at –80°C. All animal treatments were performed with permission of the Animal Ethical Committee (DEC Utrecht) and performed according to the [Law on Animal Experiments (1977)]. Animals were treated humanely and with regard for alleviation of suffering.\n(§2) Compound analysis. Adipose and liver tissues samples were homogenized in Na2SO4, followed by extraction and clean-up in one step, and then eluted with 200 mL 1:1 hexane:dichloromethane on an open column packed with 40% wt/wt H2SO4-impregnated silica and KOH-silica. Blood plasma samples were extracted on an open column using Chem-Elut (Agilent Technologies, Santa Clara, CA, USA) and then NaCl eluted with 75 mL 3:2 hexane:2-propanol. Clean-up was performed using a miniaturized silica column (as described above), and samples were eluted using 30 mL hexane. Because the samples typically contained high levels of the analytes, only a small fraction was evaporated and analyzed. Prior to evaporation, we spiked a fraction of the samples with ^13C-labeled standards. We checked potential loss of analytes during extraction and clean-up by reextracting the samples using the identical protocol used for the samples. […] Tetradecane was added prior to evaporation. Sample analysis followed the U.S. Environmental Protection Agency Method 1613 ([U.S. Environmental Protection Agency 1994]) using single ion monitoring mode on an Agilent 6809N gas chromatograph (Agilent Technologies) coupled with a Micromass Ultima Autospec Ultra high-resolution mass spectrometer (HRMS; Waters Corp., Milford, MA, USA). Compounds were separated on a 60 m × 0.25 mm DB5-MS column ([…]; J&W Scientific, Folsom, CA, USA). The HRMS was operated with electron impact ionization with electron energy of 35 eV and an ion source temperature of 250°C. To reduce the number of analyses, samples were pooled before clean-up. […] This method was used because full congener–specific separation could be achieved on the high-resolution GC–HRMS. For lipid determination, samples were evaporated to dryness after the extraction step, and the amount of lipids was determined gravimetrically. Concentrations were calculated based on lipid weight and wet weight. The analysis of samples for the PCB-118 5,000 μg/kg BW dose failed during the procedure; thus analysis for this group could not be completed.\nStatistical analysis. Statistical significant differences of the means and variances were determined using one-way analysis of variance (ANOVA) followed by Tukey-Kramer multiple comparisons. Differences were considered statistically significant at p < 0.05. Statistical calculations were performed using GraphPad 6.01 (GraphPad Software Inc.)."}, "[2]": {"test": "Compound analysis: liver, adipose and plasma concentrations 3 days after a single oral dose", "assay_type": "in vivo, female C57BL/6 mice", "conditions": "3 days after single oral dose", "description": "as §1, §2\nPlasma and PBL isolation. Blood from two mice was pooled (total volume of approximately 1.4 mL); plasma and PBLs were then isolated using Ficoll Paque gradient (GE Healthcare Europe, Diegem, Belgium). Plasma samples were stored at –80°C until compound analysis. Isolated lymphocytes were lysed with RLT buffer (QIAGEN, Venlo, the Netherlands) as described in the QIAGEN RNAeasy kit protocol and stored at –80°C until use."}}}
{"smiles": "Clc1cc2oc3c(Cl)c(Cl)c(Cl)cc3c2cc1Cl", "note": "[Congener 4-PeCDF, 2,3,4,7,8-pentachlorodibenzofuran]", "values": [{"measurement": "Body weight", "setting": "[1]; oral dose 5 µg/kg bw", "result": "19.3 ± 1.2", "unit": "gram"}, {"measurement": "Liver weight", "setting": "[1]; oral dose 5 µg/kg bw", "result": "5.37 ± 0.32 % of bw"}, {"measurement": "Spleen weight", "setting": "[1]; oral dose 5 µg/kg bw", "result": "0.29 ± 0.05 % of bw"}, {"measurement": "Thymus weight", "setting": "[1]; oral dose 5 µg/kg bw", "result": "0.26 ± 0.07 % of bw"}, {"measurement": "% lipid / g liver", "setting": "[1]; oral dose 5 µg/kg bw", "result": 3.6, "unit": "%"}, {"measurement": "Body weight", "setting": "[1]; oral dose 25 µg/kg bw", "result": "19.0 ± 1.1", "unit": "gram"}, {"measurement": "Liver weight", "setting": "[1]; oral dose 25 µg/kg bw", "result": "5.32 ± 0.19 % of bw"}, {"measurement": "Spleen weight", "setting": "[1]; oral dose 25 µg/kg bw", "result": "0.33 ± 0.04 % of bw"}, {"measurement": "Thymus weight", "setting": "[1]; oral dose 25 µg/kg bw", "result": "0.24 ± 0.04 % of bw"}, {"measurement": "% lipid / g liver", "setting": "[1]; oral dose 25 µg/kg bw", "result": 4.5, "unit": "%"}, {"measurement": "Body weight", "setting": "[1]; oral dose 100 µg/kg bw", "result": "19.2 ± 1.0", "unit": "gram"}, {"measurement": "Liver weight", "setting": "[1]; oral dose 100 µg/kg bw", "result": "5.94 ± 0.27 % of bw"}, {"measurement": "Spleen weight", "setting": "[1]; oral dose 100 µg/kg bw", "result": "0.32 ± 0.03 % of bw"}, {"measurement": "Thymus weight", "setting": "[1]; oral dose 100 µg/kg bw", "result": "0.22 ± 0.04 % of bw"}, {"measurement": "% lipid / g liver", "setting": "[1]; oral dose 100 µg/kg bw", "result": 4.5, "unit": "%"}, {"measurement": "Body weight", "setting": "[1]; oral dose 250 µg/kg bw", "result": "19.8 ± 1.0", "unit": "gram"}, {"measurement": "Liver weight", "setting": "[1]; oral dose 250 µg/kg bw", "result": "6.05 ± 0.42 % of bw"}, {"measurement": "Spleen weight", "setting": "[1]; oral dose 250 µg/kg bw", "result": "0.34 ± 0.04 % of bw"}, {"measurement": "Thymus weight", "setting": "[1]; oral dose 250 µg/kg bw", "result": "0.23 ± 0.03 % of bw"}, {"measurement": "Body weight", "setting": "[1]; oral dose 1000 µg/kg bw", "result": "20.2 ± 1.1", "unit": "gram"}, {"measurement": "Liver weight", "setting": "[1]; oral dose 1000 µg/kg bw", "result": "6.35 ± 0.30 % of bw"}, {"measurement": "Spleen weight", "setting": "[1]; oral dose 1000 µg/kg bw", "result": "0.32 ± 0.02 % of bw"}, {"measurement": "Thymus weight", "setting": "[1]; oral dose 1000 µg/kg bw", "result": "0.22 ± 0.04 % of bw"}, {"measurement": "Dose with significant increase in liver weight vs vehicle controls", "setting": "[1]; single oral dose", "result": "≥ 100", "unit": "µg/kg BW"}, {"measurement": "Adipose % dose / g tissue", "setting": "[2]; oral dose 5 µg/kg bw", "result": 3.4, "unit": "% dose / g tissue"}, {"measurement": "Adipose % dose / g tissue", "setting": "[2]; oral dose 25 µg/kg bw", "result": 3.0, "unit": "% dose / g tissue"}, {"measurement": "Adipose % dose / g tissue", "setting": "[2]; oral dose 100 µg/kg bw", "result": 3.5, "unit": "% dose / g tissue"}]}
